What was measured:
[1] = test system: adult German cockroaches, Blattella germanica; test: Insecticidal action, time-to-death of adult German cockroaches after 10 μL on the back; assay type: in vivo; settings: regardless of male or female
Description: Material and Methods: Ten μL of either BioUD 10, pure 2-Undecanone, or Raid were separately applied to the backs (thorax and wings) of adult German cockroaches, Blattella germanica. Insects were separately placed into FLUON®-treated diet cups (Vol.=30 mL, lower diam.=3 cm, height=4 cm) to prevent escape of treated specimens.

[2] = test system: Eastern subterranean termite, Reticulitermes flavipes; test: Killing activity in termites, compound pipetted onto back; assay type: in vivo; settings: adults, 1 μL

## CCCCCCCCCC(C)=O [2-Undecanone, 2-undecanone]
[1]
  speed of kill relative to the formulated product (BioUD10): ~2 ×
[2]; castes w and s together
  Time-to-death (sec), mean: 171.5 s
[2]; caste s, single insects
  Time-to-death: 146 s
